According to publication PMC4337230 (The journal of physical chemistry. B, 2010):

Molecular target: T1, Lysine 2,3-aminomutase (LAM) (Clostridium subterminale, UniProt Q9XBQ8)
T1 sequence (Q9XBQ8 1-416): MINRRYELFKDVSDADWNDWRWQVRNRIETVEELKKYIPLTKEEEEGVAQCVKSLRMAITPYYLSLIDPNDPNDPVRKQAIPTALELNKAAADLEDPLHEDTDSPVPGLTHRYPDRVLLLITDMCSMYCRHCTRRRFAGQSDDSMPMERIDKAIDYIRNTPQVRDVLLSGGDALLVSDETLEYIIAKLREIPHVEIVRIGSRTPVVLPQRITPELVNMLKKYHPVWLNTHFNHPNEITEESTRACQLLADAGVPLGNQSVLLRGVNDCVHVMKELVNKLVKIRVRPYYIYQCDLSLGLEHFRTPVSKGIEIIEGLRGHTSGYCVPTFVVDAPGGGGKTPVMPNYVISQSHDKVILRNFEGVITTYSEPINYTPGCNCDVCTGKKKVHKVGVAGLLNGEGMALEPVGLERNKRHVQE
Test: activation of L-alanine […],3-aminomutation, PITC-HPLC
Assay type: biochemical
Details: 200000 µM; activator; 0.2 M L-alanine, 0.16 mM SAM, pH 8.0, 37 °C, anaerobic

Question: `CN` [methylamine] was tested. Which “fold acceleration at 0.2 M” value did it give?
Answer: 27 fold
